The results in this text go back to US6448294B1, “Biphenyl compounds and their use as oestrogenic agents” (Aventis Pharma S.A., priority 1996, dated 2002).

In the assay the target is T1, recombinant human oestrogen receptor (Homo sapiens, UniProt P03372).
T1 construct: made in house; host or cells: SF9 insect cells (ATCC CRL1711), baculovirus
T1 sequence (P03372 1-595): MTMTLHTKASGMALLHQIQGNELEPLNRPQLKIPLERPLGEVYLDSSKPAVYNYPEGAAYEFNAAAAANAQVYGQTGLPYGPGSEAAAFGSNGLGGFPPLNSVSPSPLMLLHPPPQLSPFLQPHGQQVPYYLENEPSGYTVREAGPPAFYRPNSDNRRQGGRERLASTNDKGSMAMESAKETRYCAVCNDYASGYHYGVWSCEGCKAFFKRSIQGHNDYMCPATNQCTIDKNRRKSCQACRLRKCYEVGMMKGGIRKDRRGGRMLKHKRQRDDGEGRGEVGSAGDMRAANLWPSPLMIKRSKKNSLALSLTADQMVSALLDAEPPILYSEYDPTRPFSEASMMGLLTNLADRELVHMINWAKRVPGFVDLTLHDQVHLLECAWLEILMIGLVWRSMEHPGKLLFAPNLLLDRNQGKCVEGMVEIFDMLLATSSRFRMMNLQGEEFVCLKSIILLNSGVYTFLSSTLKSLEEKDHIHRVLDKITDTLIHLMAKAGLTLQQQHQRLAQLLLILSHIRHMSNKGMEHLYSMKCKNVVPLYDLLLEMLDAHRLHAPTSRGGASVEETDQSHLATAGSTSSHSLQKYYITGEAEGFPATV
Put plainly: Human oestrogen receptor (HOR) competitive binding with tritiated oestradiol, relative bond affinity (RBA). The note with it: RBA=100(CH)/(CX), incubation at 0° C. for 24 hours, cytosolic extract of SF9 cells. An excerpt: A cytosolic extract of SF9 cells containing the recombinant human oestrogen receptor is obtained by overexpression in an insect-Baculovirus cell system, according to the general methodology described by N. R. WEBB et al. (Journal of Methods in Cell and Molecular Biology, (1990) Vol.2 No. 4, 173-188) and the application of which is described for the expression of human hormonal receptors, for example the human glucocorticoid receptor (G. SRINIVASAN et al. Molecular Endocrinology (1990) vol 4 No. 2 209-216).
The BaculoGold Transfection Kit (PharMingen, reference 21000K) is used to generate the recombinant baculovirus containing the cDNA fragment described in the expression vector HEGO by L. TORA et al. (The EMBO Journal (1989) vol. 8 No. 7 1981-1986), containing the region coding for the wild-type human oestrogen receptor with a glycine in position 400. […]
The supernatant is incubated at 0° C. for 24 hours with a constant concentration (T) of tritiated oestradiol in the presence of increasing concentrations of either unlabelled oestradiol (0-1000×10^−9M), or of unlabelled product to be tested (0-25000×10^−9M). The concentration of bound tritiated oestradiol (B) is then measured in each incubate by the technique of adsorption with carbon dextran. […]
The relative bond affinity (RBA) of the test product is calculated by the equation: RBA=100(CH)/(CX).

Each structure is given as a SMILES string.

Consider `CN(C)CCOc1ccc(-c2c(-c3ccc(O)cc3)ccc3cc(O)ccc23)cc1` [Example 1, 5-[-4-[2-(Dimethylamino)ethoxy]phenyl] 6-(4-Hydroxyphenyl) 2-Naphthalenol], for which the “Relative bond affinity (RBA), HOR, oestradiol = 100, 24 hours” value is listed as 28. As to `Oc1ccc(-c2ccc3cc(O)ccc3c2Cl)cc1` [Example 2, 5-Chloro-6-(4-hydroxyphenyl)-2-naphthalenol], the “Relative bond affinity (RBA), HOR, oestradiol = 100, 24 hours” value is listed as 49.
